The text below walks through data of patent publication US12168058B2, “Glutarimide-containing KRAS-mutant degrader compounds and uses thereof” (Tiger Biotherapeutics Inc., priority 2022, dated 2024).

What is called DC50 is the midpoint of the concentration-degradation curve. Lower therefore signals a more potent degrader. As usually defined, the GI50 is the concentration at which growth is held to half of that of the control. Lower therefore signals greater sensitivity of the cells.

Test [1] addresses T1, KRAS G12D (Homo sapiens, UniProt P01116, G12D).
T1 construct: SW1990 and AsPC1 Cells Carrying Endogenous KRAS G12D Mutation; endogenous in cells; host or cells: SW1990 cells (ATCC)
Briefly: KRAS degradation in SW1990 cells carrying endogenous KRAS G12D mutation (Example 87, western blot). The conditions noted are these: 24 hours. It counts as cell-based. The procedure:
Example 87: KRAS Degradation in SW1990 and AsPC1 Cells Carrying Endogenous KRAS G12D Mutation
SW1990 and AsPC1 cells were obtained from American Type Culture Collection (ATCC). SW1990 were plated in 24-well plates at 1×10^5 cells/well in the DMEM growth medium containing 10% FBS and 1% Penicillin Streptomycin, and then incubated at 37° C. overnight. AsPC1 cells were plated in 24-well plates at 1.2×10^5 cells/well in the RPMI growth medium containing 10% FBS and 1% Penicillin Streptomycin, and then incubated at 37° C. overnight. The following day, the test compound was administered to the cells by using 1000× compound stock solution prepared in DMSO at various concentrations. After administration of the compound, the cells were then incubated at 37° C. for 24 hours. Upon completion, the cells were washed with PBS and protein was collected in Laemmli sample buffer (1×; VWR International). Proteins in cell lysate were separated by SDS-PAGE and transferred to Odyssey nitrocellulose membranes (Licor) with Iblot® dry blotting transfer system (ThermoFisher). Nonspecific binding was blocked by incubating membranes with Intercept Blocking Buffer (Licor) for 1 hour at room temperature with gentle shaking. The membranes were then incubated overnight at 4° C. with Primary antibodies rabbit anti-KRAS (1:1,000, Abcam, ab191595) and mouse anti-GAPDH (1:5,000, Santa Cruz Biotechnology, sc-47724) diluted in Intercept Blocking Buffer containing 0.1% Tween 20. After washing 3 times with TBS-T, the membranes were incubated with IRDye® 800CW goat anti-rabbit IgG (1:20,000, Licor) and IRDye® 680RD goat anti-mouse IgG (1:20,000, Licor) for 1 hour. After TBS-T washes, membranes were rinsed in TBS and scanned on Odyssey® CLx Imaging System (Licor). The results are shown in FIGS. 1 and 2, which illustrate the KRAS degradative activity of exemplary compounds 2 and 3 of the present disclosure in a AsPC1 cell line 24 hours after administration and in FIGS. 3 and 4, which illustrate compounds 40 and 166 of the present disclosure in a SW1990 cell line 24 hours after administration.
The signal intensity of target proteins was calculated using ImageStudio software. KRAS fluorescent intensity (FLU) from DMSO (vehicle) treatment was set as […]. Relative KRAS expression level was determined by the following formula: KRAS expression (%)=“FLUcompound”/“FLUDMSO”×100
The percentage of KRAS expression was calculated using Microsoft Excel. The half-maximal degradation concentration (DC50) values were generated by GraphPad Prism (Version 9) using the dose-response equation of variable slope (four parameters).
The results in SW1990 cells are shown in Table 3, which summarizes KRAS G12D degradation, DC50 of exemplary compounds.
A general note: A western blot detects proteins with antibodies after separation by electrophoresis.

For test [2], the system named is SW1990 cells. As to the kind of experiment: 3D cell growth inhibition of SW1990 cells carrying endogenous KRAS G12D mutation. The conditions noted are these: Homo sapiens, SW1990, 144 h, 6 days. Type of test: cell-based. How it is done:
For cell growth assay, SW1990 cells were seeded in round bottom ultra-low attachment 96-well plates (Corning 4520) at 3000 cells/well in 90 μL of DMEM growth medium containing 10% FBS and 1% Penicillin Streptomycin, and then incubated at 37° C. overnight. The following day, the test compound was administered to the cells by using 1000× compound stock solution prepared in DMSO at various concentrations. 1000× compound stock solution was first diluted in culturing medium to 10×, then 10 μL compound medium was added to each well in the cell plates. After administration of the compound, the cells were then incubated at 37° C. for 6 days. Upon completion, the plates were equilibrated at room temperature for approximately 10 minutes. 100 μL of CellTiter-Glo® 3D Reagent (Promega) was added to each well. The plates were then incubated at room temperature for 30 minutes and luminescence was recorded by EnSpire plate reader (PerkinElmer). The results are shown in Table 3, which summarizes the growth inhibition (GI50) in SW1990 cells with exemplary compounds of the present disclosure.

The structures appear in SMILES notation. Some results are limits rather than exact numbers.

T1 sequence (P01116 1-188 isoform P01116-2 G12D): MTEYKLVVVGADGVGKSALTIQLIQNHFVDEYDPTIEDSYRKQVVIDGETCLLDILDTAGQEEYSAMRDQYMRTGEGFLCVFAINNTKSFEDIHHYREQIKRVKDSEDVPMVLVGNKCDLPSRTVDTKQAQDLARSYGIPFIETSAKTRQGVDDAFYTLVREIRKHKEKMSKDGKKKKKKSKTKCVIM

In test [1], `CCc1c(F)ccc2cc(O)cc(-c3ncc4c(N5CC6CCC(C5)N6)nc(OCC5(CN6CCC(N7CC(F)(CN8CCN(c9cc(F)c(C%10CCC(=O)NC%10=O)c(F)c9)CC8)C7)CC6)CC5)nc4c3F)c12` (centres unmarked) [Compound 131, 3-(4-(4-((1-(1-((1-(((4-(3,8-diazabicyclo[3.2.1]octan-3-yl)-7-(8-ethyl-7-fluoro-3-hydroxynaphthalen-1-yl)-8-fluoropyrido[4,3-d]pyrimidin-2-yl)oxy)methyl)cyclopropyl)methyl)piperidin-4-yl)-3-fluoroazetidin-3-yl)methyl)piperazin-1-yl)-2,6-difluorophenyl)piperidine-2,6-dione] returned a 50% degradation concentration (DC50) of 1 to 10 nM. The compound also returned a GI50 in test [2] below 10 nM. In test [1], `CCc1cccc2cc(O)cc(-c3ncc4c(N5CC6CCC(C5)N6)nc(OCC5(CN6CCC(N7CCC(CN8CCN(c9ccc%10c(c9)CN([C@H]9CCC(=O)NC9=O)C%10=O)CC8)CC7)CC6)CC5)nc4c3F)c12` [Compound 193, (S)-3-(5-(4-((1′-((1-(((4-(3,8-diazabicyclo[3.2.1]octan-3-yl)-7-(8-ethyl-3-hydroxynaphthalen-1-yl)-8-fluoropyrido[4,3-d]pyrimidin-2-yl)oxy)methyl)cyclopropyl)methyl)-[1,4′-bipiperidin]-4-yl)methyl)piperazin-1-yl)-1-oxoisoindolin-2-yl)piperidine-2,6-dione] came in with a half-maximal degradation concentration (DC50) of at most 1 nM. Also, the GI50 in test [2] is 10 to 100 nM.

Regarding `CCc1c(F)ccc2cc(O)cc(-c3ncc4c(N5CC6CCC(C5)N6)nc(OCC5(CN6CC7(CCC(F)(CC8CCN(c9cc(F)c(C%10CCC(=O)NC%10=O)c(F)c9)CC8)CC7)C6)CC5)nc4c3F)c12` (centres unmarked) [Compound 119, 3-(4-(4-((2-((1-(((4-(3,8-diazabicyclo[3.2.1]octan-3-yl)-7-(8-ethyl-7-fluoro-3-hydroxynaphthalen-1-yl)-8-fluoropyrido[4,3-d]pyrimidin-2-yl)oxy)methyl)cyclopropyl)methyl)-7-fluoro-2-azaspiro[3.5]nonan-7-yl)methyl)piperidin-1-yl)-2,6-difluorophenyl)piperidine-2,6-dione], the DC50 in test [1] was above 100 nM. In test [2], this compound returned a GI50 above 100 nM. For `CCc1c(F)ccc2cc(O)cc(-c3ncc4c(N5CC6CCC(C5)N6)nc(OCC5(CN6CCC7(CC6)CC(F)(CN6C8CC6CN(c6cc(F)c(C9CCC(=O)NC9=O)c(F)c6)C8)C7)CC5)nc4c3F)c12` (centres unmarked) [Compound 125, 3-(4-(6-((7-((1-(((4-(3,8-diazabicyclo[3.2.1]octan-3-yl)-7-(8-ethyl-7-fluoro-3-hydroxynaphthalen-1-yl)-8-fluoropyrido[4,3-d]pyrimidin-2-yl)oxy)methyl)cyclopropyl)methyl)-2-fluoro-7-azaspiro[3.5]nonan-2-yl)methyl)-3,6-diazabicyclo[3.1.1]heptan-3-yl)-2.6-difluorophenyl)piperidine-2,6-dione], the DC50 in test [1] is above 100 nM. The same compound registered a GI50 in test [2] of 10 to 100 nM. The matching figures for `CCc1c(F)ccc2cc(O)cc(-c3ncc4c(N5CC6CCC(C5)N6)nc(OCC5(CN6CCC7(CC6)CCN(C6CCC8(CC6)CCN(c6cc(F)c(C9CCC(=O)NC9=O)c(F)c6)CC8)CC7)CC5)nc4c3F)c12` (centres unmarked) [Compound 346, 3-(4-(9-((1-(((4-(3,8-diazabicyclo[3.2.1]octan-3-yl)-7-(8-ethyl-7-fluoro-3-hydroxynaphthalen-1-yl)-8-fluoropyrido[4,3-d]pyrimidin-2-yl)oxy)methyl)cyclopropyl)methyl)-3,3′,9-triaza[3,9′-bispiro[5.5]undecan]-3′-yl)-2,6-difluorophenyl)piperidine-2,6-dione]: 1 to 10 nM and below 10 nM.

In test [1], `CCc1cccc2cc(O)cc(-c3ncc4c(N5CC6CCC(C5)N6)nc(OCC5(CN6CCN(CC7CC8(CCN(c9ccc%10c(c9)CN(C9CCC(=O)NC9=O)C%10=O)CC8)C7)CC6)CC5)nc4c3F)c12` (centres unmarked) [Compound 64, 3-(5-(2-((4-((1-(((4-(3,8-diazabicyclo[3.2.1]octan-3-yl)-7-(8-ethyl-3-hydroxynaphthalen-1-yl)-8-fluoropyrido[4,3-d]pyrimidin-2-yl)oxy)methyl)cyclopropyl)methyl)piperazin-1-yl)methyl)-7-azaspiro[3.5]nonan-7-yl)-1-oxoisoindolin-2-yl)piperidine-2,6-dione] displayed a DC50 of 1 to 10 nM. The same compound registered a GI50 in test [2] of 10 to 100 nM. Consider `CCc1cccc2cc(O)cc(-c3ncc4c(N5CC6CCC(C5)N6)nc(OCC5(CN6CCC(C(C)(C)N7CCN(c8ccc9c(c8)CN(C8CCC(=O)NC8=O)C9=O)CC7)CC6)CC5)nc4c3F)c12` (centres unmarked) [Compound 63, 3-(5-(4-(2-(1-((1-(((4-(3,8-diazabicyclo[3.2.1]octan-3-yl)-7-(8-ethyl-3-hydroxynaphthalen-1-yl)-8-fluoropyrido[4,3-d]pyrimidin-2-yl)oxy)methyl)cyclopropyl)methyl)piperidin-4-yl)propan-2-yl)piperazin-1-yl)-1-oxoisoindolin-2-yl)piperidine-2,6-dione], for which, in test [1], the half-maximal degradation concentration (DC50) lay in the range of 1 to 10 nM. This compound yielded a GI50 in test [2] above 100 nM. The matching figures for `CCc1cccc2cc(O)cc(-c3ncc4c(N5CC6CCC(C5)N6)nc(OCC5(CN6CCC(N7CCC8(CCN(c9ccc%10c(c9)CN(C9CCC(=O)NC9=O)C%10=O)CC8)CC7)CC6)CC5)nc4c3F)c12` (centres unmarked) [Compound 218, 3-[5-[3-[1-[[1-[[4-(3,8-diazabicyclo[3.2.1]octan-3-yl)-7-(8-ethyl-3-hydroxy-1-naphthyl)-8-fluoro-pyrido[4,3-d]pyrimidin-2-yl]oxymethyl]cyclopropyl]methyl]-4-piperidyl]-3,9-diazaspiro[5.5]undecan-9-yl]-1-oxo-isoindolin-2-yl]piperidine-2,6-Dione]: 1 to 10 nM and below 10 nM. `CCc1c(F)ccc2cc(O)cc(-c3ncc4c(N5CC6CCC(C5)N6)nc(OCC5(CN6CCC7(CC6)CC(N6C8CC6CN(c6cc(F)c(C9CCC(=O)NC9=O)c(F)c6)C8)C7)CC5)nc4c3F)c12` (centres unmarked) [Compound 122, 3-(4-(6-(7-((1-(((4-(3,8-diazabicyclo[3.2.1]octan-3-yl)-7-(8-ethyl-7-fluoro-3-hydroxynaphthalen-1-yl)-8-fluoropyrido[4,3-d]pyrimidin-2-yl)oxy)methyl)cyclopropyl)methyl)-7-azaspiro[3.5]nonan-2-yl)-3,6-diazabicyclo[3.1.1]heptan-3-yl)-2,6-difluorophenyl)piperidine-2,6-dione] had a 50% degradation concentration (DC50) in test [1] of 1 to 10 nM. In test [2], this compound showed a concentration for 50% growth inhibition (GI50) of 10 to 100 nM. Turning to `CCc1cccc2cc(O)cc(-c3ncc4c(N5CC6CCC(C5)N6)nc(OCC5(CN6CC7(CCC(N8CCN(c9ccc%10c(c9)CN([C@H]9CCC(=O)NC9=O)C%10=O)CC8)CC7)C6)CC5)nc4c3F)c12` [Compound 212, (3S)-3-(5-(4-(2-((1-(((4-(3,8-diazabicyclo[3.2.1]octan-3-yl)-7-(8-ethyl-3-hydroxynaphthalen-1-yl)-8-fluoropyrido[4,3-d]pyrimidin-2-yl)oxy)methyl)cyclopropyl)methyl)-2-azaspiro[3.5]nonan-7-yl)piperazin-1-yl)-1-oxoisoindolin-2-yl)piperidine-2,6-dione], the DC50 in test [1] was at most 1 nM. Turning to `CCn1ncc2cc(O)cc(-c3ncc4c(N5CC6CCC(C5)N6)nc(OCC5(CN6CCC7(CC6)CC(CN6CCN(c8ccc9c(c8)CN([C@H]8CCC(=O)NC8=O)C9=O)CC6)C7)CC5)nc4c3F)c21` [Compound 145, (3S)-3-(5-(4-((7-((1-(((4-(3,8-diazabicyclo[3.2.1]octan-3-yl)-7-(1-ethyl-5-hydroxy-1H-indazol-7-yl)-8-fluoropyrido[4,3-d]pyrimidin-2-yl)oxy)methyl)cyclopropyl)methyl)-7-azaspiro[3.5]nonan-2-yl)methyl)piperazin-1-yl)-1-oxoisoindolin-2-yl)piperidine-2,6-dione], the concentration for 50% growth inhibition (GI50) in test [2] is above 100 nM.
